Results on eight compounds are retold here after US9834543B2, “Indazoles and use thereof” (Purdue Pharma L.P., priority 2013, dated 2017).

Experiment [1] concerns the target human Nav1.7 (Homo sapiens (Human), UniProt Q15858). Briefly: FLIPR or FLIPR TETRA sodium dye assay with KCl and test article pre-incubation (sodium mobilization). It counts as cell-based.
Experiment [2] deals with hNav1.7 (Homo sapiens (Human), UniProt Q15858). Put plainly: EP (electrophysiology) assay, whole-cell patch clamp in hNav1.7 expressing HEK-293 cells. The note with it: affinity for the inactivated state of the channel; hNav1.7 HEK-293; read-out: Nav1.7 Activity (μM) EP assay Ki. It counts as cell-based. Background: In patch-clamp work, channel activity is measured electrically.
Procedure: Cells Manual Electrophysiology: The hNav1.7 expressing HEK-293 cells are plated on 35 mm culture dishes pre-coated with poly-D-lysine in standard DMEM culture media (Mediatech, Inc., Herndon, Va.) and incubated in a 5% CO2 incubator at 37° C. Cultured cells are used approximately 12-48 h after plating.
The hNav1.7 expressing HEK-293 cells are plated on tissue culture flasks in standard DMEM culture media (Mediatech, Inc.) and incubated in a 5% CO2 incubator at 37° C. Cultured cells are used approximately 12-48 hours after plating.
On the day of experimentation, the 35 mm dish is placed on the stage of an inverted microscope equipped with a perfusion system that continuously perfuses the culture dish with fresh recording media. A gravity driven superfusion system is used to apply test solutions directly to the cell under evaluation. This “shooter” system consists of an array of glass pipette glass connected to a motorized horizontal translator. The outlet of the shooter is positioned approximately 100 μm from the cell of interest.
Gigaseals are formed and the whole-cell configuration is established in voltage clamp mode, and membrane currents generated by hNav1.7 channels are recorded. […] Signals are sampled at 50 kHz and low pass filtered at 3 kHz.
Gigaseals are formed and the whole-cell configuration is established in voltage clamp mode, and membrane currents generated by hNav1.7 are recorded. […]
After a stable baseline is established, the test compound is applied and block of the current elicited by the test pulse assessed. […] An estimate of the Ki is calculated as follows: Ki=[drug]*{FR/(1−FR)}, Eq. 1 where [drug] is the concentration of a drug, and FR=I(after drug)/I(control), Eq. 2
where I is the peak current amplitude. If multiple concentrations were used, Ki is determined from the fit of a logistic equation to FRs plotted against corresponding drug concentrations. […]
The compound testing protocol is a series of 10 ms depolarizations from the Vh1 (determined from the SSIN) to the Vt (determined from the I-V protocol) repeated every 10-15 seconds. […]

Read-outs that look alike come from different tables or passages of the source.

Sequence of human Nav1.7 (Q15858 with tags, fused parts or gaps limits assumed): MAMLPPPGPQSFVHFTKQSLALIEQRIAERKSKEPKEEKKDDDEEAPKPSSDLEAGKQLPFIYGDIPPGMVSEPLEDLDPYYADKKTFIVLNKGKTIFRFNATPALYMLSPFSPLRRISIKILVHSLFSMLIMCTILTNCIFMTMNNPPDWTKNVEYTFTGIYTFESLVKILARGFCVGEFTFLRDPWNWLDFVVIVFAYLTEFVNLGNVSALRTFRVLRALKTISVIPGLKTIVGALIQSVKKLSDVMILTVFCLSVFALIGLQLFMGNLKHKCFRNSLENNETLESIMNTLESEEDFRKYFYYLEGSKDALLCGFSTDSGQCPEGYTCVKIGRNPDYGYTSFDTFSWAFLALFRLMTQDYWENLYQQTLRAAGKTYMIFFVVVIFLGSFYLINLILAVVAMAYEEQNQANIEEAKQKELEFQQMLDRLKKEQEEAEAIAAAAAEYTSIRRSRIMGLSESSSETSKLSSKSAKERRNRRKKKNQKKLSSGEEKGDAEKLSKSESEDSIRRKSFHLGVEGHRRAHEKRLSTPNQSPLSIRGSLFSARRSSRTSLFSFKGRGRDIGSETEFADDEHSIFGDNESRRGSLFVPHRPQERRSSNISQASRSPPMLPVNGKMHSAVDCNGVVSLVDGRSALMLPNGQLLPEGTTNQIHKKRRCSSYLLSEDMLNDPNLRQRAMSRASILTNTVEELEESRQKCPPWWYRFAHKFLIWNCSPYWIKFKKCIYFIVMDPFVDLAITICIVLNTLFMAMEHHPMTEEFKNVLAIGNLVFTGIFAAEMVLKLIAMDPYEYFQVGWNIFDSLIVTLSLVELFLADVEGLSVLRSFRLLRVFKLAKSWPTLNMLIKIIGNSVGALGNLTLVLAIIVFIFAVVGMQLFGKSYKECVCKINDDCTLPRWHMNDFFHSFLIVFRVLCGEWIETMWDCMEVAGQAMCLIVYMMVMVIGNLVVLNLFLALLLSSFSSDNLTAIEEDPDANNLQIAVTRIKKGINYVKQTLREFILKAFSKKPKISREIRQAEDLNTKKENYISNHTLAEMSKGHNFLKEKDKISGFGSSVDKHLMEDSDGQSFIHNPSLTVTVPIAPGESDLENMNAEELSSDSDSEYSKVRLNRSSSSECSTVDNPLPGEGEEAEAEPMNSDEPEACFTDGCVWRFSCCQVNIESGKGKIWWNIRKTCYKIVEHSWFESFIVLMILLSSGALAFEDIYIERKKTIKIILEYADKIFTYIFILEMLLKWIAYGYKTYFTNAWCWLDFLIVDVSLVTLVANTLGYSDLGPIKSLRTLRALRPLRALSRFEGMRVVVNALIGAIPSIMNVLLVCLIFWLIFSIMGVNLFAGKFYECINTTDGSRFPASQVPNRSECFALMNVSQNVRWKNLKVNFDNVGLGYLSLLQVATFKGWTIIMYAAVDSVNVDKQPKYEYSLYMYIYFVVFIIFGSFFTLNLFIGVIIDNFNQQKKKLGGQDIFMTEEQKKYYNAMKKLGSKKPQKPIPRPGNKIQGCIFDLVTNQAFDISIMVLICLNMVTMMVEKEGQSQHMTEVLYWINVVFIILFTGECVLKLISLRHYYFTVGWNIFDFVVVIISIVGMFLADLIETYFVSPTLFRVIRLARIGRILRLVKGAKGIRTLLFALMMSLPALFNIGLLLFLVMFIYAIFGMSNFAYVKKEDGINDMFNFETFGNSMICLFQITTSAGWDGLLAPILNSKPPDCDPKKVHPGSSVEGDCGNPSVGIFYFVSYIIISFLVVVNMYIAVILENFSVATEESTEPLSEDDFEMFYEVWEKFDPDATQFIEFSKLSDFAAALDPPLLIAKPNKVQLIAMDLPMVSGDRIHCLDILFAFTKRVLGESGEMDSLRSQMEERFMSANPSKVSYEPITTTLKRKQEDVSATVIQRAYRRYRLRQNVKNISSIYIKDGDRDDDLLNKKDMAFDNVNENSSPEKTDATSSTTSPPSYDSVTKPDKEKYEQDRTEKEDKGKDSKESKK
Sequence of hNav1.7 (Q15858 other isoform, or with tags, fused parts or gaps): as the sequence (Q15858 with tags, fused parts or gaps limits assumed) above

Regarding `Cn1ncc2c(Oc3cc(F)c(S(=O)(=O)Nc4nncs4)cc3Cl)ccc(Cl)c21` [Compound 41, 5-chloro-4-((7-chloro-1-methyl-1H-indazol-4-yl)oxy)-2-fluoro-N-(1,3,4-thiadiazol-2-yl)benzenesulfonamide], the IC50 (commonly the concentration needed to halve the response being measured) in experiment [1] (recombinant human Nav1.7 in HEK293, veratridine and scorpion venom agonists) was > 20 µM.
As for `Cn1ncc2c(Oc3ccc(-c4cc([C@@H](O)CO)cc(C(N)=O)n4)cc3)ccc(F)c21` [Compound 40, (R)-4-(1,2-dihydroxyethyl)-6-(4-((7-fluoro-1-methyl-1H-indazol-4-yl)oxy)phenyl)picolinamide], half-maximal inhibition in experiment [1] (IC50) required 0.596 ± 0.076 µM.
In experiment [1], `Cn1ncc2c(Oc3ccc(-c4cc([C@H](O)CO)cc(C(N)=O)n4)cc3)ccc(Cl)c21` [Compound 38, (S)-6-(4-((7-chloro-1-methyl-1H-indazol-4-yl)oxy)phenyl)-4-(1,2-dihydroxyethyl)picolinamide] registered an IC50 of 0.45 ± 0.026 µM.
Consider `Cn1ncc2c(Oc3ccc(-c4nc(N[C@H]5CCNC5=O)cc(C(N)=O)n4)cc3)ccc(Cl)c21` [Compound 20, (S)-2-(4-((7-chloro-1-methyl-1H-indazol-4-yl)oxy)phenyl)-6-((2-oxopyrrolidin-3-yl)amino)pyrimidine-4-carboxamide], for which half-maximal inhibition in experiment [1] (IC50) required 0.405 ± 0.06 µM.
`Cn1ncc2c(Oc3ccc(-c4cc([C@H](O)CO)cc(C(N)=O)n4)cc3)ccc(F)c21` [Compound 39, (S)-4-(1,2-dihydroxyethyl)-6-(4-((7-fluoro-1-methyl-1H-indazol-4-yl)oxy)phenyl)picolinamide] returned an IC50 in experiment [1] of 0.797 ± 0.051 µM. In experiment [2], the Ki was 0.47 ± 0.046 µM.
Turning to `Cn1ncc2c(Oc3ccc(-c4cccc(C(N)=O)n4)cc3)ccc(Cl)c21` [Compound 22, 6-(4-((7-chloro-1-methyl-1H-indazol-4-yl)oxy)phenyl)picolinamide], in experiment [1], the IC50 came to 0.53 ± 0.034 µM.
Take `Cn1ncc2c(Oc3ccc(S(=O)(=O)Nc4nncs4)cc3)ccc(Cl)c21` [Compound 42, 4-((7-chloro-1-methyl-1H-indazol-4-yl)oxy)-N-(1,3,4-thiadiazol-2-yl)benzenesulfonamide]: the IC50 in experiment [1] is > 20 µM. The Ki in experiment [2] came to 9.01 ± 4.76 µM.
Compound `Cn1ncc2c(Oc3ccc(-c4nc(C(N)=O)cc([C@H](O)CO)n4)cc3)ccc(Cl)c21` [Compound 34, (S)-2-(4-((7-chloro-1-methyl-1H-indazol-4-yl)oxy)phenyl)-6-(1,2-dihydroxyethyl)pyrimidine-4-carboxamide] registered an IC50 in experiment [1] of 0.157 ± 0.023 µM. Also, in experiment [2], the Ki was 0.12 ± 0.027 µM.
